Experimental data published in US20240042046A1, “METHODS AND COMPOUNDS FOR MODULATING HUNTINGTON'S DISEASE” (Design Therapeutics, Inc., priority 2022, published 2024).

Legend:
Format in all cases: cell-based
[1] = test system: human HTT mRNA, SNP rs362331 C allele, GM09197 fibroblasts; assay: Screening of HD molecules in GM09197 fibroblasts, allele-specific HTT mRNA by RT-PCR, C allele; details: for GM 09197 E min 48 Hr C Allele (%): Emin = lowest % HTT observed within compound concentration 0.5 nM to 1000 nM
Method: (§1) Molecular Biology Toolkit: • qPCR primer probe sets: • RNA input normalization was assessed utilizing human glyceraldehyde 3-phosphate dehydrogenase (hGAPDH) TaqMan assay (ThermoFisher cat #4351370) or Human Cyclophillin ([…]) TaqMan assay (ThermoFisher cat #4351372) • Total HTT detection was assessed utilizing human Htt TaqMan assay (ThermoFisher cat #4331182) • Allele-specific detection of human HTT expression in HD cells containing the SNP rs362331C/T (Exon 50): for each assay, allele-specific probes to detect the SNP variant contained locked nucleic acid bases to improve allele discrimination, as compared to unmodified DNA probes.
(§2) • qPCR was performed using Agpath ID one-step reverse transcriptase polymerase chain reaction (RT-PCR) reagent
(§3) Screening of HD molecules methods: GM09197 and/or GM04022 fibroblasts were cultured in T175 flasks incubated at 37° C. and 5% CO2. Once confluency was reached, the media was removed, the cells were washed with 1×PBS, and cells were dissociated using TrypLE™ Express Enzyme. Media was added to the enzyme and collected into a 15-mL conical tube and centrifuged at 500×g for 5 minutes to pellet the cells. Media and enzyme were aspirated using a serological pipette. Cells were resuspended in fresh media and counted using a Countess 3 Automated Cell Counter. Cells were plated at a density of 15,000 cells/well in a tissue culture-treated polystyrene 96-well dish and incubated at 37° C. and 5% CO2 overnight. The next day, media was removed using an 8-channel aspirator. 200 μL media/well are added back into the plate. The molecules are formulated to 1 mM and are dispensed using a Multidrop™ Pico 8 Digital Dispenser. After a 48-hour incubation with compounds, media was removed from plates, cells were washed with 1×PBS, and cells were lysed in 40 μL per well guanidinium thiocyanate buffer. RNA was isolated and purified in […] glass fiber column plates using chaotropic salts. Human mtHTT, wtHTT, and GAPDH mRNA were measured via RT-PCR using the ThermoFisher QuantStudio™ 7 Flex System in 384-well format. Results of HTT levels were normalized to GAPDH mRNA levels. Normalized HTT mRNA levels were expressed relative to vehicle-treated samples to assess fold change after molecule treatment.
(§4) Emin for each compound is the lowest % HTT concentration observed within a compound concentration of 0.5 nM to 1000 nM.

[2] = test system: human HTT mRNA, SNP rs362331 T allele, GM04022 fibroblasts; assay: Screening of HD molecules in GM04022 fibroblasts, allele-specific HTT mRNA by RT-PCR, T allele; details: for GM04022 Emin 48 hr T Allele: Emin = lowest % HTT observed within compound concentration 0.5 nM to 1000 nM; for IC50: Homo sapiens, Fibroblast, 48-hour incubation, T allele HTT mRNA normalized to GAPDH, relative to vehicle
Method: as §1, §2, §3, §4

[3] = test system: human HTT mRNA, SNP rs362331 T allele, GM09197 fibroblasts; assay: Screening of HD molecules in GM09197 fibroblasts, allele-specific HTT mRNA by RT-PCR, T allele; details: for Gm09197 Emin 48 hr T Allele (%): Emin = lowest % HTT observed within compound concentration 0.5 nM to 1000 nM; for IC50: Homo sapiens, Fibroblast, 48-hour incubation, T allele HTT mRNA normalized to GAPDH, relative to vehicle
Method: as §1, §2, §3, §4

[4] = test system: human HTT mRNA, SNP rs362331 C allele, GM04022 fibroblasts; assay: Screening of HD molecules in GM04022 fibroblasts, allele-specific HTT mRNA by RT-PCR, C allele; details: Emin = lowest % HTT observed within compound concentration 0.5 nM to 1000 nM
Method: as §1, §2
as §3, with “Results of HTT levels were normalized to GAPDH mRNA levels. Normalized HTT mRNA levels were expressed relative to vehicle-treated samples to assess fold change after molecule treatment.” left out

Compound	GM 09197 E min 48 Hr C Allele (%) [1]	GM04022 Emin 48 hr T Allele [2]	Gm09197 Emin 48 hr T Allele (%) [3]	GM 04022Emin 48 hr C Allele [4]	IC50 [2]	IC50 [3]	IC50 ([1]; Homo sapiens, Fibroblast, 48-hour incubation, C allele HTT mRNA normalized to GAPDH, relative to vehicle)
Cn1cc(NC(=O)c2nc(NC(=O)CCNC(=O)c3cc(NC(=O)c4nccn4C)cn3C)cn2C)cc1C(=O)NCCCC(=O)Nc1cn(C)c(C(=O)NCCC(=O)Nc2cc(C(=O)Nc3cn(C)c(C(=O)NCCC(=O)NCCOCCOCCOCCOCCOCCOCCOCCOCCOCCOCCOCCOCCOCCOCCOCCOc4ccc(NC(=O)c5cc6c(-c7cc(S(C)(=O)=O)ccc7Oc7ccc(F)cc7F)cn(C)c(=O)c6[nH]5)cc4)n3)n(C)c2)n1 [Compound A-2]	A (A>90%)	C (C<80%)	C (C<80%)	A (A>90%)			
CCNC(=O)c1cc2c(-c3cc(S(C)(=O)=O)ccc3Oc3ccc(OCCOCCOCCOCCOCCOCCOCCOCCOCCNC(=O)CCNC(=O)c4nc(NC(=O)c5cc(NC(=O)CCNC(=O)c6nc(NC(=O)CCCNC(=O)c7cc(NC(=O)c8nc(NC(=O)CCNC(=O)c9cc(NC(=O)c%10nccn%10C)cn9C)cn8C)cn7C)cn6C)cn5C)cn4C)cc3F)cn(C)c(=O)c2[nH]1 [Compound A-3]	A (A>90%)	C (C<80%)	C (C<80%)	A (A>90%)	36 nM	38.7 nM	
CCS(=O)(=O)Nc1ccc(Oc2ccc(F)cc2F)c(-c2cn(C)c(=O)c3[nH]c(C(=O)Nc4ccc(OCCOCCOCCOCCOCCOCCOCCOCCOCCNC(=O)CCNC(=O)c5nc(NC(=O)c6cc(NC(=O)CCNC(=O)c7nc(NC(=O)CCCNC(=O)c8cc(NC(=O)c9nc(NC(=O)CCNC(=O)c%10cc(NC(=O)c%11nccn%11C)cn%10C)cn9C)cn8C)cn7C)cn6C)cn5C)cc4)cc23)c1 [Compound A-5]	A (A>90%)	C (C<80%)	C (C<80%)	A (A>90%)	2 nM	9.8 nM	
Cc1noc(C)c1-c1ccc2c(c1)nc(CCc1ccc(OCCOCCOCCOCCOCCNC(=O)CCNC(=O)c3nc(NC(=O)c4cc(NC(=O)CCNC(=O)c5nc(NC(=O)CCCNC(=O)c6cc(NC(=O)c7nc(NC(=O)CCNC(=O)c8cc(NC(=O)c9nccn9C)cn8C)cn7C)cn6C)cn5C)cn4C)cn3C)c(Cl)c1)n2C[C@H](C)N1CCOCC1 [Compound A-52]	C (C<80%)		B (B is 90% to 80%)			> 1000 nM	> 1000 nM
Cc1noc(C)c1-c1ccc2c(c1)nc(CCc1ccc(OCCOCCOCCOCCOCCOCCOCCOCCOCCNC(=O)CCNC(=O)c3nc(NC(=O)c4cc(NC(=O)CCNC(=O)c5nc(NC(=O)CCCNC(=O)c6cc(NC(=O)c7nc(NC(=O)CCNC(=O)c8cc(NC(=O)c9nccn9C)cn8C)cn7C)cn6C)cn5C)cn4C)cn3C)c(Cl)c1)n2C[C@H](C)N1CCOCC1 [Compound A-53]	A (A>90%)		B (B is 90% to 80%)				
Cc1noc(C)c1-c1ccc2c(c1)nc(CCc1ccc(OCCOCCOCCOCCOCCOCCOCCOCCOCCOCCOCCOCCOCCOCCOCCOCCNC(=O)CCNC(=O)c3nc(NC(=O)c4cc(NC(=O)CCNC(=O)c5nc(NC(=O)CCCNC(=O)c6cc(NC(=O)c7nc(NC(=O)CCNC(=O)c8cc(NC(=O)c9nccn9C)cn8C)cn7C)cn6C)cn5C)cn4C)cn3C)c(Cl)c1)n2C[C@H](C)N1CCOCC1 [Compound A-54]	B (B is 90% to 80%)		B (B is 90% to 80%)				
CCNC(=O)c1cc2c(-c3cc(S(C)(=O)=O)ccc3Oc3ccc(OCCOCCOCCOCCOCCNC(=O)CCNC(=O)c4nc(NC(=O)c5cc(NC(=O)CCNC(=O)c6nc(NC(=O)CCCNC(=O)c7cc(NC(=O)c8nc(NC(=O)CCNC(=O)c9cc(NC(=O)c%10nccn%10C)cn9C)cn8C)cn7C)cn6C)cn5C)cn4C)cc3F)cn(C)c(=O)c2[nH]1 [Compound A-55]	A (A>90%)		A (A>90%)				
CC(=O)N1c2ccc(-c3ccn(CCOCCOCCOCCOCCOCCOCCOCCOCCOCCOCCOCCOCCOCCOCCOCCNC(=O)CCNC(=O)c4nc(NC(=O)c5cc(NC(=O)CCNC(=O)c6nc(NC(=O)CCCNC(=O)c7cc(NC(=O)c8nc(NC(=O)CCNC(=O)c9cc(NC(=O)c%10nccn%10C)cn9C)cn8C)cn7C)cn6C)cn5C)cn4C)n3)cc2[C@H](Nc2ccc(C#N)cc2)C[C@@H]1C [Compound A-56]	C (C<80%)		C (C<80%)				
CC(=O)N1c2ccc(-c3ccn(-c4ccc(OCCOCCOCCOCCOCCOCCOCCOCCOCCOCCOCCOCCOCCOCCOCCOCCNC(=O)CCNC(=O)c5nc(NC(=O)c6cc(NC(=O)CCNC(=O)c7nc(NC(=O)CCCNC(=O)c8cc(NC(=O)c9nc(NC(=O)CCNC(=O)c%10cc(NC(=O)c%11nccn%11C)cn%10C)cn9C)cn8C)cn7C)cn6C)cn5C)cc4)n3)cc2[C@H](Nc2ccc(C#N)cc2)C[C@@H]1C [Compound A-58]	B (B is 90% to 80%)		B (B is 90% to 80%)				
CC(=O)N1c2ccc(-c3ccn(-c4ccc(OCCOCCOCCOCCOCCOCCOCCOCCOCCNC(=O)CCNC(=O)c5nc(NC(=O)c6cc(NC(=O)CCNC(=O)c7nc(NC(=O)CCCNC(=O)c8cc(NC(=O)c9nc(NC(=O)CCNC(=O)c%10cc(NC(=O)c%11nccn%11C)cn%10C)cn9C)cn8C)cn7C)cn6C)cn5C)cc4)n3)cc2[C@H](Nc2ccc(C#N)cc2)C[C@@H]1C [Compound A-59]	B (B is 90% to 80%)		B (B is 90% to 80%)				
CCNS(=O)(=O)c1ccc(Oc2ccc(OCCOCCOCCOCCOCCOCCOCCOCCOCCOCCOCCOCCOCCOCCOCCOCCNC(=O)CCNC(=O)c3nc(NC(=O)c4cc(NC(=O)CCNC(=O)c5nc(NC(=O)CCCNC(=O)c6cc(NC(=O)c7nc(NC(=O)CCNC(=O)c8cc(NC(=O)c9nccn9C)cn8C)cn7C)cn6C)cn5C)cn4C)cn3C)cc2F)c(-c2cn(C)c(=O)c3[nH]ccc23)c1 [Compound A-68]	A (A>90%)		C (C<80%)				
CCS(=O)(=O)Nc1ccc(Oc2ccc(F)cc2F)c(-c2cn(C)c(=O)c3[nH]c(C(=O)Nc4ccc(OCCOCCOCCOCCOCCOCCOCCOCCOCCOCCOCCOCCOCCOCCOCCOCCNC(=O)CCNC(=O)c5nc(NC(=O)c6cc(NC(=O)CCNC(=O)c7nc(NC(=O)OCCNC(=O)c8cc(NC(=O)c9nc(NC(=O)CCNC(=O)c%10cc(NC(=O)c%11nccn%11C)cn%10C)cn9C)cn8C)cn7C)cn6C)cn5C)cc4)cc23)c1 [Compound A-72]	B (B is 90% to 80%)		A (A>90%)				
Cc1sc2c(c1C)C(c1ccc(Cl)cc1)=N[C@@H](CC(=O)Nc1ccc(OCCOCCOCCOCCOCCOCCOCCOCCOCCOCCOCCOCCOCCOCCOCCOCCNC(=O)CCNC(=O)c3nc(NC(=O)c4cc(NC(=O)CCNC(=O)c5nc(NC(=O)OCCNC(=O)c6cc(NC(=O)c7nc(NC(=O)CCNC(=O)c8cc(NC(=O)c9nccn9C)cn8C)cn7C)cn6C)cn5C)cn4C)cn3C)cc1)c1nnc(C)n1-2 [Compound A-73]	A (A>90%)		A (A>90%)				
CCS(=O)(=O)Nc1ccc(Oc2ccc(F)cc2F)c(-c2cn(C)c(=O)c3[nH]c(C(=O)Nc4ccc(OCCOCCOCCOCCOCCOCCOCCOCCOCCOCCOCCOCCOCCOCCOCCOCCNC(=O)CCNC(=O)c5nc(NC(=O)c6cc(NC(=O)CCNC(=O)c7nc(NC(=O)NCCNC(=O)c8cc(NC(=O)c9nc(NC(=O)CCNC(=O)c%10cc(NC(=O)c%11nccn%11C)cn%10C)cn9C)cn8C)cn7C)cn6C)cn5C)cc4)cc23)c1 [Compound A-74]	B (B is 90% to 80%)		A (A>90%)				
Cc1sc2c(c1C)C(c1ccc(Cl)cc1)=N[C@@H](CC(=O)Nc1ccc(OCCOCCOCCOCCOCCOCCOCCOCCOCCOCCOCCOCCOCCOCCOCCOCCNC(=O)CCNC(=O)c3nc(NC(=O)c4cc(NC(=O)CCNC(=O)c5nc(NC(=O)NCCNC(=O)c6cc(NC(=O)c7nc(NC(=O)CCNC(=O)c8cc(NC(=O)c9nccn9C)cn8C)cn7C)cn6C)cn5C)cn4C)cn3C)cc1)c1nnc(C)n1-2 [Compound A-75]	A (A>90%)		A (A>90%)				
